From paper PMC5443783, “Prostaglandin E2 glyceryl ester is an endogenous agonist of the nucleotide receptor P2Y6” (Scientific Reports, 2017)

Columns and labels:
Experiment in all cases: PathHunter β-Arrestin orphan GPCR panel
Assay type in all cases: cell-based
Settings in all cases: agonist mode, 0.001 µM
ADMR = molecular target: T1, ADMR (Homo sapiens, UniProt O15218)
T1 construct: purchased DiscoveRx (PathHunter β-Arrestin orphan GPCR panel)
Text: (§1) For screening orphan GPCRs as possible targets for PGE2-G, the PathHunter® β-Arrestin assay (DiscoveRx Co., USA) was used. It monitors the activation of a GPCR by utilizing an enzyme fragment complementation assay with β-galactosidase as the functional reporter. Briefly, the enzyme is split into two complementary portions expressed as fusion proteins in the cell. The enzyme acceptor is fused to β2-arrestin, and the ProLink donor peptide is fused to the GPCR of interest. Upon GPCR stimulation, β2-arrestin is recruited to the receptor, bringing the two fragments of β-galactosidase together. This generates an active enzyme that can convert a chemiluminescent substrate, generating a signal detectable on a standard microplate reader (see manufacturer’s instructions). In total, 78 GPCRs, previously considered orphan and individually transfected into cells, were screened by DiscoveRx (Supplementary Table S1). The percentage activity given in the results is calculated using the following formula: % activity = 100% × (mean RLU of test sample - mean RLU of vehicle control)/mean RLU of vehicle control).

BAI1 = molecular target: T2, BAI1 (Homo sapiens, UniProt O14514)
T2 construct: purchased DiscoveRx (PathHunter β-Arrestin orphan GPCR panel)
T2 sequence (O14514 31-1584): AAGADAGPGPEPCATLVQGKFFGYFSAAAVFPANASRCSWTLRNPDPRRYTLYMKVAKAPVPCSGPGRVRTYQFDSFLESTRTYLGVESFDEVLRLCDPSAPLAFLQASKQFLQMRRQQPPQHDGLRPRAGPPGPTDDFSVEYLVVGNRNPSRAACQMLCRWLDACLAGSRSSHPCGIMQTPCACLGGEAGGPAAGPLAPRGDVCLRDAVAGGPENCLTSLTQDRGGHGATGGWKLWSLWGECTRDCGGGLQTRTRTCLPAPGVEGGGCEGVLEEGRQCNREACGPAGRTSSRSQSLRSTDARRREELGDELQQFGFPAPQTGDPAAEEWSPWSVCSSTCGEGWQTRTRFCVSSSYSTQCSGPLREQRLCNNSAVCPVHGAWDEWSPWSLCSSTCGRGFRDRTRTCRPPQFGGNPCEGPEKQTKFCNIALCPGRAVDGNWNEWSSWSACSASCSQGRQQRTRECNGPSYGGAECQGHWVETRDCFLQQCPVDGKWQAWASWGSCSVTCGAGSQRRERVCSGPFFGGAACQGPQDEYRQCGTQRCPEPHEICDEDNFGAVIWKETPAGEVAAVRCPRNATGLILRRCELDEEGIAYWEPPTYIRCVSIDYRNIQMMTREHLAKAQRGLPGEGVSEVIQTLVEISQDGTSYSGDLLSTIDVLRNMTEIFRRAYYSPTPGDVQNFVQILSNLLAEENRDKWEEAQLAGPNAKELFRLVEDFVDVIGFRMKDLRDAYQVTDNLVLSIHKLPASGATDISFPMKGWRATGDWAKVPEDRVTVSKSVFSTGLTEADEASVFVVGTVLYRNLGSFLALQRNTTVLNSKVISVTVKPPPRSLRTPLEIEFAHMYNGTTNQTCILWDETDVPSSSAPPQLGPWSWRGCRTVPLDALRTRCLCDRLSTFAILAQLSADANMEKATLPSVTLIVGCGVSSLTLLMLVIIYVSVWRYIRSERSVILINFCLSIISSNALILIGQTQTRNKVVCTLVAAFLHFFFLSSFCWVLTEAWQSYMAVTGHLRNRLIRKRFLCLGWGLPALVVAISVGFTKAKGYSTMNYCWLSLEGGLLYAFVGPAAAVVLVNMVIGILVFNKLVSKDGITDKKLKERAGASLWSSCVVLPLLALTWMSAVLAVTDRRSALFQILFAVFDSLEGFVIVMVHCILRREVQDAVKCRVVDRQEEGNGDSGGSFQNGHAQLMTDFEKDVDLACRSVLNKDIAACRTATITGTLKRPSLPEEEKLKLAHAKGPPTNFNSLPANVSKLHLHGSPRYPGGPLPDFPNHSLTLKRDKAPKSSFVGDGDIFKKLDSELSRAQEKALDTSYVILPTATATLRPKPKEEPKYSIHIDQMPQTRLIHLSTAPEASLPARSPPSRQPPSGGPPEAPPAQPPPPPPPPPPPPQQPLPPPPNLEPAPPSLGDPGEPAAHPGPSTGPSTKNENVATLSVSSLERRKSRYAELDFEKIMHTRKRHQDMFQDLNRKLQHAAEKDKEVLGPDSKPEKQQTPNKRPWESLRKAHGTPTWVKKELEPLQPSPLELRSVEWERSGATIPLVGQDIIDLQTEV
Text: as §1

BAI2 = molecular target: T3, BAI2 (Homo sapiens, UniProt O60241)
T3 construct: purchased DiscoveRx (PathHunter β-Arrestin orphan GPCR panel)
Text: as §1

BAI3 = molecular target: T4, BAI3 (Homo sapiens, UniProt O60242)
T4 construct: purchased DiscoveRx (PathHunter β-Arrestin orphan GPCR panel)
Text: as §1

CCRL2 = molecular target: T5, CCRL2 (Homo sapiens, UniProt O00421)
T5 construct: purchased DiscoveRx (PathHunter β-Arrestin orphan GPCR panel)
Text: as §1

CMKLR2 = molecular target: T6, CMKLR2 (Homo sapiens, UniProt P46091)
T6 construct: purchased DiscoveRx (PathHunter β-Arrestin orphan GPCR panel)
Text: as §1

DARC = molecular target: T7, DARC (Homo sapiens, UniProt Q16570)
T7 construct: purchased DiscoveRx (PathHunter β-Arrestin orphan GPCR panel)
Text: as §1

EBI2 = molecular target: T8, EBI2 (Homo sapiens, UniProt P32249)
T8 construct: purchased DiscoveRx (PathHunter β-Arrestin orphan GPCR panel)
Text: as §1

GHSR1B = molecular target: T9, GHSR1B (Homo sapiens, UniProt Q92847)
T9 construct: purchased DiscoveRx (PathHunter β-Arrestin orphan GPCR panel)
T9 sequence (Q92847 1-289 isoform Q92847-2): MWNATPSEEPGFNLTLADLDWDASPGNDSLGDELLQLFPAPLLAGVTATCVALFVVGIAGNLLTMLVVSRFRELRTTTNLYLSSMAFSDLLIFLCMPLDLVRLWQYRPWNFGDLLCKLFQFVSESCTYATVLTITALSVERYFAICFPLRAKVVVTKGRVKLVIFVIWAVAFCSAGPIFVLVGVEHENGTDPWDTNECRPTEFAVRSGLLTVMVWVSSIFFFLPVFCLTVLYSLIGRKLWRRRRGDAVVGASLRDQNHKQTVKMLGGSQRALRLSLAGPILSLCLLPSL
Text: as §1

GPR101 = molecular target: T10, GPR101 (Homo sapiens, UniProt Q96P66)
T10 construct: purchased DiscoveRx (PathHunter β-Arrestin orphan GPCR panel)
Text: as §1

GPR103 = molecular target: T11, GPR103 (Homo sapiens, UniProt Q96P65)
T11 construct: purchased DiscoveRx (PathHunter β-Arrestin orphan GPCR panel)
Text: as §1

GPR107 = molecular target: T12, GPR107 (Homo sapiens, UniProt Q5VW38)
T12 construct: purchased DiscoveRx (PathHunter β-Arrestin orphan GPCR panel)
Text: as §1

GPR12 = molecular target: T13, GPR12 (Homo sapiens, UniProt P47775)
T13 construct: purchased DiscoveRx (PathHunter β-Arrestin orphan GPCR panel)
T13 sequence (P47775 whole entry): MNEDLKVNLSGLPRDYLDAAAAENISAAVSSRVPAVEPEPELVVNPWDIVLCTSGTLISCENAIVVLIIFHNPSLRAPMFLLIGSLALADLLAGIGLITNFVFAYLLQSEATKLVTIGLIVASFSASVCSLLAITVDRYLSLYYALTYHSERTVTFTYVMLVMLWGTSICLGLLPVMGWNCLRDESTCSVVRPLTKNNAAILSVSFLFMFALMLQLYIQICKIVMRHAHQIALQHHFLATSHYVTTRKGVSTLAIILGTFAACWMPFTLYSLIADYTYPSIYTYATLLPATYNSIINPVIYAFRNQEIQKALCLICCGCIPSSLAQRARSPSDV
Text: as §1

GPR123 = molecular target: T14, GPR123 (Homo sapiens, UniProt Q86SQ6)
T14 construct: purchased DiscoveRx (PathHunter β-Arrestin orphan GPCR panel)
Text: as §1

GPR132 = molecular target: T15, GPR132 (Homo sapiens, UniProt Q9UNW8)
T15 construct: purchased DiscoveRx (PathHunter β-Arrestin orphan GPCR panel)
Text: as §1

GPR135 = molecular target: T16, GPR135 (Homo sapiens, UniProt Q8IZ08)
T16 construct: purchased DiscoveRx (PathHunter β-Arrestin orphan GPCR panel)
Text: as §1

GPR139 = molecular target: T17, GPR139 (Homo sapiens, UniProt Q6DWJ6)
T17 construct: purchased DiscoveRx (PathHunter β-Arrestin orphan GPCR panel)
Text: as §1

GPR141 = molecular target: T18, GPR141 (Homo sapiens, UniProt Q7Z602)
T18 construct: purchased DiscoveRx (PathHunter β-Arrestin orphan GPCR panel)
Text: as §1

GPR142 = molecular target: T19, GPR142 (Homo sapiens, UniProt Q7Z601)
T19 construct: purchased DiscoveRx (PathHunter β-Arrestin orphan GPCR panel)
T19 sequence (Q7Z601 whole entry): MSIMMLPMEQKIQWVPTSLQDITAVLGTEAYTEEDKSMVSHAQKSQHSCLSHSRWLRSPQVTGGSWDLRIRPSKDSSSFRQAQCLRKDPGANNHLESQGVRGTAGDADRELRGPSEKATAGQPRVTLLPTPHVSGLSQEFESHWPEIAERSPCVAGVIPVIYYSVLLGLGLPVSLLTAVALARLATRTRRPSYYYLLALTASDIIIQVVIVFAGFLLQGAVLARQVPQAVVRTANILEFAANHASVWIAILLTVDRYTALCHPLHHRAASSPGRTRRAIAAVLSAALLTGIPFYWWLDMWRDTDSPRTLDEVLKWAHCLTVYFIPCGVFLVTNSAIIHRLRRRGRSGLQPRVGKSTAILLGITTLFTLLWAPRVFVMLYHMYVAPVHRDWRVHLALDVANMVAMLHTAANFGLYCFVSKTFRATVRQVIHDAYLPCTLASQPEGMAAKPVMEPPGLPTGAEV
Text: as §1

GPR143 = molecular target: T20, GPR143 (Homo sapiens, UniProt P51810)
T20 construct: purchased DiscoveRx (PathHunter β-Arrestin orphan GPCR panel)
Text: as §1

GPR146 = molecular target: T21, GPR146 (Homo sapiens, UniProt Q96CH1)
T21 construct: purchased DiscoveRx (PathHunter β-Arrestin orphan GPCR panel)
Text: as §1

GPR148 = molecular target: T22, GPR148 (Homo sapiens, UniProt Q8TDV2)
T22 construct: purchased DiscoveRx (PathHunter β-Arrestin orphan GPCR panel)
T22 sequence (Q8TDV2 whole entry): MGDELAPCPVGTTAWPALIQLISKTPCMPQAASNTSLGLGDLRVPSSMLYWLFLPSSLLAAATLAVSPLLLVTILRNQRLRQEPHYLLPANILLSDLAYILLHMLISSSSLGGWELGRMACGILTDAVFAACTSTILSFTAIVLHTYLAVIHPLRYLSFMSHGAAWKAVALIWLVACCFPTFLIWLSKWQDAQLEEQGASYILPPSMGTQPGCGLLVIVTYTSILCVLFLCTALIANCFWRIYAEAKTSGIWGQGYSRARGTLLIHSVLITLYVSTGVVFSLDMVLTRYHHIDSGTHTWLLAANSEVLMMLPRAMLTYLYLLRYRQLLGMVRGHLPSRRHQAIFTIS
Text: as §1

GPR149 = molecular target: T23, GPR149 (Homo sapiens, UniProt Q86SP6)
T23 construct: purchased DiscoveRx (PathHunter β-Arrestin orphan GPCR panel)
Text: as §1

GPR15 = molecular target: T24, GPR15 (Homo sapiens, UniProt P49685)
T24 construct: purchased DiscoveRx (PathHunter β-Arrestin orphan GPCR panel)
Text: as §1

GPR150 = molecular target: T25, GPR150 (Homo sapiens, UniProt Q8NGU9)
T25 construct: purchased DiscoveRx (PathHunter β-Arrestin orphan GPCR panel)
Text: as §1

GPR151 = molecular target: T26, GPR151 (Homo sapiens, UniProt Q8TDV0)
T26 construct: purchased DiscoveRx (PathHunter β-Arrestin orphan GPCR panel)
Text: as §1

GPR152 = molecular target: T27, GPR152 (Homo sapiens, UniProt Q8TDT2)
T27 construct: purchased DiscoveRx (PathHunter β-Arrestin orphan GPCR panel)
Text: as §1

GPR157 = molecular target: T28, GPR157 (Homo sapiens, UniProt Q5UAW9)
T28 construct: purchased DiscoveRx (PathHunter β-Arrestin orphan GPCR panel)
T28 sequence (Q5UAW9 whole entry): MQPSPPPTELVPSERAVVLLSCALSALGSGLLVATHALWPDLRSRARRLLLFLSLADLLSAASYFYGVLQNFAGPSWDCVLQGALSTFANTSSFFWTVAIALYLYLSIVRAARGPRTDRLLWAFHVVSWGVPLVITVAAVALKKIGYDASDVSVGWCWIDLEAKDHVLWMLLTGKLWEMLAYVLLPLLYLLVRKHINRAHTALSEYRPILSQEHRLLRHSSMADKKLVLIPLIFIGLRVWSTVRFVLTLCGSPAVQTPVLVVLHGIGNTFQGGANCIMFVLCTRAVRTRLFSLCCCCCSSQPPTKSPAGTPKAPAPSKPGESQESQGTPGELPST
Text: as §1

GPR161 = molecular target: T29, GPR161 (Homo sapiens, UniProt Q8N6U8)
T29 construct: purchased DiscoveRx (PathHunter β-Arrestin orphan GPCR panel)
T29 sequence (Q8N6U8 whole entry): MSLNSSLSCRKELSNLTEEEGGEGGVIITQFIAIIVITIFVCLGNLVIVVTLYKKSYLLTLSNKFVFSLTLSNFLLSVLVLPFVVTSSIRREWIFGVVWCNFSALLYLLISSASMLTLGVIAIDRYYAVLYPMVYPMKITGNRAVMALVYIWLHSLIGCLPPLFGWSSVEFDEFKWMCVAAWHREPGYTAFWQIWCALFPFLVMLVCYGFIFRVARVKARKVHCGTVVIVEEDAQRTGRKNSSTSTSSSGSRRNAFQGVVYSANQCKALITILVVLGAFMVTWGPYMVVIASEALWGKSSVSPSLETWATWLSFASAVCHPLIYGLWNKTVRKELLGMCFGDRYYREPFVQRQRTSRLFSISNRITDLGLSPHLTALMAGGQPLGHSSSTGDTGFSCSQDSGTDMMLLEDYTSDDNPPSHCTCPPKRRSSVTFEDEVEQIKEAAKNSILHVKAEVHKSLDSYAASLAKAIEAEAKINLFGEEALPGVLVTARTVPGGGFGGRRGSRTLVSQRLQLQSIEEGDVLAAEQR
Text: as §1

GPR162 = molecular target: T30, GPR162 (Homo sapiens, UniProt Q16538)
T30 construct: purchased DiscoveRx (PathHunter β-Arrestin orphan GPCR panel)
Text: as §1

GPR17 = molecular target: T31, GPR17 (Homo sapiens, UniProt Q13304)
T31 construct: purchased DiscoveRx (PathHunter β-Arrestin orphan GPCR panel)
Text: as §1

GPR171 = molecular target: T32, GPR171 (Homo sapiens, UniProt O14626)
T32 construct: purchased DiscoveRx (PathHunter β-Arrestin orphan GPCR panel)
Text: as §1

GPR173 = molecular target: T33, GPR173 (Homo sapiens, UniProt Q9NS66)
T33 construct: purchased DiscoveRx (PathHunter β-Arrestin orphan GPCR panel)
Text: as §1

GPR176 = molecular target: T34, GPR176 (Homo sapiens, UniProt Q14439)
T34 construct: purchased DiscoveRx (PathHunter β-Arrestin orphan GPCR panel)
Text: as §1

GPR18 = molecular target: T35, GPR18 (Homo sapiens, UniProt Q14330)
T35 construct: purchased DiscoveRx (PathHunter β-Arrestin orphan GPCR panel)
Text: as §1

GPR182 = molecular target: T36, GPR182 (Homo sapiens, UniProt O15218)
T36 construct: purchased DiscoveRx (PathHunter β-Arrestin orphan GPCR panel)
Text: as §1

GPR20 = molecular target: T37, GPR20 (Homo sapiens, UniProt Q99678)
T37 construct: purchased DiscoveRx (PathHunter β-Arrestin orphan GPCR panel)
Text: as §1

GPR23 = molecular target: T38, GPR23 (Homo sapiens, UniProt Q99677)
T38 construct: purchased DiscoveRx (PathHunter β-Arrestin orphan GPCR panel)
Text: as §1

GPR25 = molecular target: T39, GPR25 (Homo sapiens, UniProt O00155)
T39 construct: purchased DiscoveRx (PathHunter β-Arrestin orphan GPCR panel)
Text: as §1

GPR26 = molecular target: T40, GPR26 (Homo sapiens, UniProt Q8NDV2)
T40 construct: purchased DiscoveRx (PathHunter β-Arrestin orphan GPCR panel)
Text: as §1

GPR27 = molecular target: T41, GPR27 (Homo sapiens, UniProt Q9NS67)
T41 construct: purchased DiscoveRx (PathHunter β-Arrestin orphan GPCR panel)
Text: as §1

GPR3 = molecular target: T42, GPR3 (Homo sapiens, UniProt P46089)
T42 construct: purchased DiscoveRx (PathHunter β-Arrestin orphan GPCR panel)
T42 sequence (P46089 whole entry): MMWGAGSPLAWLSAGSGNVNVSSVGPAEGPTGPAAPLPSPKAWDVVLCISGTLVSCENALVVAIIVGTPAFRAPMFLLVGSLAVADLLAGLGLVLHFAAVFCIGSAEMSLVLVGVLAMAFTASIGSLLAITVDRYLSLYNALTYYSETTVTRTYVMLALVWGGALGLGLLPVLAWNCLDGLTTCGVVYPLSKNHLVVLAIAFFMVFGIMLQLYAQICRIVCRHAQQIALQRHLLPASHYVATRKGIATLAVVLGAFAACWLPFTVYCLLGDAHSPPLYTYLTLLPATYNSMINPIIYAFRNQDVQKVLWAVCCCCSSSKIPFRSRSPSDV
Text: as §1

GPR30 = molecular target: T43, GPR30 (Homo sapiens, UniProt Q99527)
T43 construct: purchased DiscoveRx (PathHunter β-Arrestin orphan GPCR panel)
Text: as §1

GPR31 = molecular target: T44, GPR31 (Homo sapiens, UniProt O00270)
T44 construct: purchased DiscoveRx (PathHunter β-Arrestin orphan GPCR panel)
T44 sequence (O00270 whole entry): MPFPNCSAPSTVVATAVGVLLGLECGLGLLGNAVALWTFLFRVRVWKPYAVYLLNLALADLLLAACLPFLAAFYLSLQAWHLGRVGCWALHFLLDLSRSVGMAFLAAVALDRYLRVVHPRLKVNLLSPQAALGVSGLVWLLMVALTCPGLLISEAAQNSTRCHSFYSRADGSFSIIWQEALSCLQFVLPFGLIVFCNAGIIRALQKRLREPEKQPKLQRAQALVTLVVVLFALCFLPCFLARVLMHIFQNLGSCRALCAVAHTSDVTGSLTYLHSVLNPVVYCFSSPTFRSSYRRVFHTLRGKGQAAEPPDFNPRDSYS
Text: as §1

GPR32 = molecular target: T45, GPR32 (Homo sapiens, UniProt O75388)
T45 construct: purchased DiscoveRx (PathHunter β-Arrestin orphan GPCR panel)
Text: as §1

GPR37 = molecular target: T46, GPR37 (Homo sapiens, UniProt O15354)
T46 construct: purchased DiscoveRx (PathHunter β-Arrestin orphan GPCR panel)
Text: as §1

GPR37L1 = molecular target: T47, GPR37L1 (Homo sapiens, UniProt O60883)
T47 construct: purchased DiscoveRx (PathHunter β-Arrestin orphan GPCR panel)
T47 sequence (O60883 26-481): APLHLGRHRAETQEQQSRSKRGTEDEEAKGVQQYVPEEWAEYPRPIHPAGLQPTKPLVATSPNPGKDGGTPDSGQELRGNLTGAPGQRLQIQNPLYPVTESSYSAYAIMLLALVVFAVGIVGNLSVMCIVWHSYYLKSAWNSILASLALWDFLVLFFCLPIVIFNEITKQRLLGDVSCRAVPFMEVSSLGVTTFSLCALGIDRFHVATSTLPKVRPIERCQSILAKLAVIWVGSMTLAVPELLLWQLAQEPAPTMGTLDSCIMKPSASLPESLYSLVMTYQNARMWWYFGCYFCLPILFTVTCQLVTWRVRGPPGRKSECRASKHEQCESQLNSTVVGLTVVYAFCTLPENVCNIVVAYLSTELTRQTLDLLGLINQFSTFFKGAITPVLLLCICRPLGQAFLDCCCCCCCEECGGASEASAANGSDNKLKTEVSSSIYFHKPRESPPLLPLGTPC
Text: as §1

Mean RLU (ADMR): 514420 RLU
Mean RLU (BAI1): 864280 RLU
Mean RLU (BAI2): 15400 RLU
Mean RLU (BAI3): 21960 RLU
Mean RLU (CCRL2): 8400 RLU
Mean RLU (CMKLR2): 17240 RLU
Mean RLU (DARC): 105120 RLU
Mean RLU (EBI2): 46540 RLU
Mean RLU (GHSR1B): 2580 RLU
Mean RLU (GPR101): 30940 RLU
Mean RLU (GPR103): 56020 RLU
Mean RLU (GPR107): 304860 RLU
Mean RLU (GPR12): 680 RLU
Mean RLU (GPR123): 1221720 RLU
Mean RLU (GPR132): 620480 RLU
Mean RLU (GPR135): 16680 RLU
Mean RLU (GPR139): 307380 RLU
Mean RLU (GPR141): 30420 RLU
Mean RLU (GPR142): 2660 RLU
Mean RLU (GPR143): 91680 RLU
Mean RLU (GPR146): 15800 RLU
Mean RLU (GPR148): 3640 RLU
Mean RLU (GPR149): 29340 RLU
Mean RLU (GPR15): 9440 RLU
Mean RLU (GPR150): 31360 RLU
Mean RLU (GPR151): 57420 RLU
Mean RLU (GPR152): 178980 RLU
Mean RLU (GPR157): 356620 RLU
Mean RLU (GPR161): 20300 RLU
Mean RLU (GPR162): 26360 RLU
Mean RLU (GPR17): 805440 RLU
Mean RLU (GPR171): 4880 RLU
Mean RLU (GPR173): 62220 RLU
Mean RLU (GPR176): 380580 RLU
Mean RLU (GPR18): 520 RLU
Mean RLU (GPR182): 899260 RLU
Mean RLU (GPR20): 74500 RLU
Mean RLU (GPR23): 990600 RLU
Mean RLU (GPR25): 6140 RLU
Mean RLU (GPR26): 2200 RLU
Mean RLU (GPR27): 219760 RLU
Mean RLU (GPR3): 1524920 RLU
Mean RLU (GPR30): 8540 RLU
Mean RLU (GPR31): 7680 RLU
Mean RLU (GPR32): 129240 RLU
Mean RLU (GPR37): 822100 RLU
Mean RLU (GPR37L1): 36440 RLU
SMILES: CCCCC[C@H](O)/C=C/[C@H]1[C@H](O)CC(=O)[C@@H]1C/C=C\CCCC(=O)NC(CO)CO [PGE2-SA]
